How the values were obtained:
Assay type in all cases: cell-based
[1] = test system: OCUM-1 stomach/gastric cancer cells; assay: CellTiter-Glo proliferation assay, OCUM1
Method: (§1) OCUM-1: Stomach/gastric cancer—JCRB No. JCRB0192 cultured in DMEM+0.5 mM sodium pyruvate+10% FBS EBC-1: Lung cancer—JCRB No. JCRB0820 cultured in DMEM+10% FBS SKCO-1: Colon cancer—ATCC No. HTB-39 cultured in Eagle's Minimum Essential Medium+10% FBS The Her2 antibody drug conjugates were tested against nine endogenous cancer cell lines. NCI-N87: Stomach/gastric cancer—ATCC No. CRL-5822 cultured in RPMI-1640+10% FBS The PCAD antibody drug conjugates were tested against nine endogenous cancer cell lines. BICR-22: Tongue cancer—ECACC No. 04072106 cultured in DMEM+2 mM Glutamine+2% FBS+0.4 micrograms/ml Hydrocortisone
(§2) The ability of the antibody drug conjugates to inhibit cell proliferation and survival was assessed using the Promega CellTiter-Glo® proliferation assay.
(§3) Cell lines were cultured in media that is optimal for their growth at 5% CO2, 37° C. in a tissue culture incubator. […] On the day of seeding, cell viability and cell density were determined using a cell counter (Vi-Cell XR Cell Viability Analyzer, Beckman Coulter). […] Plates were incubated at 5% CO2, 37° C. for 5 days in a tissue culture incubator, after which cell viability was assessed through the addition of 25 μL of CellTiter Glo® (Promega, cat #G7573), a reagent which lyses cells and measures total adenosine triphosphate (ATP) content. […]

[2] = test system: NCI-N87 stomach/gastric cancer cells; assay: CellTiter-Glo proliferation assay, NCIN87
Method: as §1, §2, §3

EBC-1 lung cancer cells = assay: CellTiter-Glo proliferation assay, EBC1
Method: as §1, §2, §3

[3] = test system: BICR-22 tongue cancer cells; assay: CellTiter-Glo proliferation assay, BICR22
Method: as §1, §2, §3

[4] = test system: SKCO-1 colon cancer cells; assay: CellTiter-Glo proliferation assay, SKCO1
Method: as §1, §2, §3

`CCC(C)[C@@H]([C@@H](CC(=O)N1CCC[C@H]1[C@H](OC)[C@@H](C)C(=O)N[C@@H](Cc1ccccc1)c1nccs1)OC)N(C)C(=O)[C@@H](NC(=O)[C@H]1N[C@@H]2CC[C@H]1C2)C(C)C` (stereo partly shown) [Auristatin#1] was tested, and the IC50 ([1]; OCUM1, 120 h) was 1.38 nM, the “Amax (Span)” value ([1]; Unconjugated drug cytotoxicity, OCUM1, 5 days) was 72.3 and the IC50 ([2]; Homo sapiens, NCI-N87, 120 h) was 1.2 nM. For the same molecule, the “Amax (Span)” value ([2]; Unconjugated drug cytotoxicity, NCIN87, 5 days) was 75.7, the IC50 (EBC-1 lung cancer cells; Homo sapiens, EBC-1, 120 h) was 0.23 nM and the “Amax (Span)” value (EBC-1 lung cancer cells; Unconjugated drug cytotoxicity, EBC1, 5 days) was 77.0. For the same molecule, the IC50 ([3]; 120 h) was 0.271 nM, the “Amax (Span)” value ([3]; Unconjugated drug cytotoxicity, BICR22, 5 days) was 89.7 and the IC50 ([4]; Homo sapiens, SK-CO-1, 120 h) was 1.13 nM. The “Amax (Span)” value ([4]; Unconjugated drug cytotoxicity, SKCO1, 5 days) was 81.6.

Source: patent US20260061065A1, “ANTIBODY DRUG CONJUGATES” (priority 2022, published 2026)
